Measured values: patent US12178842B2, “PCSK9 antagonist compounds” (MERCK SHARP & DOHME LLC, priority 2019, dated 2024)

Experiments:
Assay type in all cases: binding
PCSK9 [1] = molecular target: T1, PCSK9 (Homo sapiens, UniProt Q8NBP7); assay: PCSK9 Alexa FRET Standard TR-FRET assay; conditions: Ki calculated from IC50 and KD of AF cyclic peptide Reagent A; 0.5 nM PCSK9, 20 nM AF cyclic peptide; read-out: Alexa FRET Stdt TR-FRET
T1 construct: biotin (biotinylated); purchased
Procedure, shortened: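 Ki (nM) calculated from sigmoidal-fit IC50 and the KD of an AlexaFluor-labelled cyclic peptide (20 nM final) competing with compound for biotinylated PCSK9 (0.5 nM) bound to Eu-streptavidin (1.25 nM). Incubation at least 2 h, room temperature, HEPES pH 7.4 buffer with CaCl2; falling europium counts flag false positives.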

PCSK9 [2] = molecular target: T1, PCSK9; assay: PCSK9 Alexa FRET Plus TR-FRET assay
Procedure, shortened: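 Compounds displace an AlexaFluor-labeled cyclic peptide (1920 nM solution, not final) from europium-tagged PCSK9; time-resolved FRET read after ≥2 h at room temperature. Ki derived from fitted IC50 and peptide KD, europium donor counts monitored to detect compound interference, results given in nanomolar.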

PCSK9 [3] = molecular target: T1, PCSK9; assay: PCSK9 Alexa FRET Ultra TR-FRET assay
Procedure, shortened: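 TR-FRET read after ≥2 h at room temperature between europium-PCSK9 and an AlexaFluor cyclic peptide, stated as a 1920 nM solution. Sigmoidal nonlinear regression gives IC50, and Ki in nM follows from the peptide KD; europium counts are monitored for compound interference.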

[4] = Ki calculated from IC50 and KD of AF cyclic peptide Reagent B, 0.5 nM PCSK9, 960 nM AF cyclic peptide, read-out: Alexa FRET Plus TR-FRET
[5] = Ki Ultra, calculated from IC50 and KD of AF cyclic peptide, 0.5 nM PCSK9, 960 nM AF cyclic peptide, read-out: Alexa FRET Ultra TR-FRET

T1 sequence (Q8NBP7 153-692): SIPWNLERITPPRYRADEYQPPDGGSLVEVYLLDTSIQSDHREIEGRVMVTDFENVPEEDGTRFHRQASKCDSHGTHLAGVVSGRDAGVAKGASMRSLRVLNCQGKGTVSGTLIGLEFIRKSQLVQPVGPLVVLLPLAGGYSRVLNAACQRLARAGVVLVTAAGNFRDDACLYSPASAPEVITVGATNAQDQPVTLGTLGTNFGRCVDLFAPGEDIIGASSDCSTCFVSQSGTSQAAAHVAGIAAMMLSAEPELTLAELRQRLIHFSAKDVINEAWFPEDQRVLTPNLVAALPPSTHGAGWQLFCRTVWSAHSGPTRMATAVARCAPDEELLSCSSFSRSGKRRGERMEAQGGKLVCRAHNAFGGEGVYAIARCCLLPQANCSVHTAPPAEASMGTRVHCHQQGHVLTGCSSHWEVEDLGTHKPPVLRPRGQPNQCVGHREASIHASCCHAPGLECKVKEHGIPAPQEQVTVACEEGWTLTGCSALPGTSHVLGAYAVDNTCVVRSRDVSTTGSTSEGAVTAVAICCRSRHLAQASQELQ

SMILES	Ki (PCSK9 [1]) [pM]	Ki (PCSK9 [2]; [4]) [pM]	Ki (PCSK9 [3]; [5]) [pM]	Ki (PCSK9 [2]) [pM]	Ki (PCSK9 [3]) [pM]
COc1ccc(C[C@@H]2NC(=O)[C@H]([C@@H](C)O)NC(=O)[C@@H]3[C@@H]4CCN3C(=O)[C@@H]3Cc5cn(c6ccc(F)cc56)CCCCCCN(Cc5ccc(cc5)CCNC(=O)[C@]5(C)CCCN5C2=O)C(=O)CCC(=O)N[C@@H](C)C(=O)N[C@H](CNC(=O)CCOCCOCC[N+](C)(C)CCNC(=O)COCCOCCNC(=O)COCCOCCNC(=O)CCC(CS(=O)(=O)O)NC(=O)CCCCCCCCCCCCCCCCC(=O)O)C(=O)N[C@@H](Cc2cccc(c2)CNC(=O)CO4)C(=O)N3)cc1 (stereo partly drawn) [Ex-67]	< 1260	< 6	5	–	–
COc1ccc(C[C@@H]2NC(=O)[C@H]([C@@H](C)O)NC(=O)[C@@H]3[C@@H]4CCN3C(=O)[C@@H]3Cc5cn(c6ccc(F)cc56)CCCCCCN(Cc5ccc(cc5)CCNC(=O)[C@]5(C)CCCN5C2=O)C(=O)CCC(=O)N[C@@H](C)C(=O)N[C@H](CNC(=O)CCOCCOCC[N+](C)(C)CCNS(=O)(=O)CCCNS(=O)(=O)CCCNC(=O)CC[C@H](NC(=O)CCCCCCCCCCCCCCCCC(=O)O)C(=O)O)C(=O)N[C@@H](Cc2cccc(c2)CNC(=O)CO4)C(=O)N3)cc1 [Ex-68]	< 1260	< 6	5	–	–
COc1ccc(C[C@@H]2NC(=O)[C@H]([C@@H](C)O)NC(=O)[C@@H]3[C@@H]4CCN3C(=O)[C@@H]3Cc5cn(c6ccc(F)cc56)CCCCCCN(Cc5ccc(cc5)CCNC(=O)[C@]5(C)CCCN5C2=O)C(=O)CCC(=O)N[C@@H](C)C(=O)N[C@H](CNC(=O)CCCCC[N+](C)(C)CCNC(=O)COCCOCCNC(=O)CCCCCCCCCCCCCCCCC(=O)O)C(=O)N[C@@H](Cc2cccc(c2)CNC(=O)CO4)C(=O)N3)cc1 [Example 1]	< 1260	–	–	< 6	7
COc1ccc(C[C@@H]2NC(=O)[C@H]([C@@H](C)O)NC(=O)[C@@H]3[C@@H]4CCN3C(=O)[C@@H]3Cc5cn(c6ccc(F)cc56)CCCCCCN(Cc5ccc(cc5)CCNC(=O)[C@]5(C)CCCN5C2=O)C(=O)CCC(=O)N[C@@H](C)C(=O)N[C@H](CNC(=O)CCCCC[N+](C)(C)CCNC(=O)COCCOCCNC(=O)COCCOCCNC(=O)CC[C@H](NC(=O)CCCCCCCCCCCCCCCCC(=O)O)C(=O)O)C(=O)N[C@@H](Cc2cccc(c2)CNC(=O)CO4)C(=O)N3)cc1 [Example 2]	< 1260	–	–	14	6
COc1ccc(C[C@@H]2NC(=O)[C@H]([C@@H](C)O)NC(=O)[C@@H]3[C@@H]4CCN3C(=O)[C@@H]3Cc5cn(c6ccc(F)cc56)CCCCCCN(Cc5ccc(cc5)CCNC(=O)[C@]5(C)CCCN5C2=O)C(=O)CCC(=O)N[C@@H](C)C(=O)N[C@H](CNC(=O)CCCCC[N+](C)(C)CCNC(=O)COCCOCCNC(=O)COCCOCCNC(=O)CC[C@H](NC(=O)CCCCCCCCCCCCCCC(=O)O)C(=O)O)C(=O)N[C@@H](Cc2cccc(c2)CNC(=O)CO4)C(=O)N3)cc1 [Example 3]	< 1260	–	–	< 6	5
COc1ccc(C[C@@H]2NC(=O)[C@H]([C@@H](C)O)NC(=O)[C@@H]3[C@@H]4CCN3C(=O)[C@@H]3Cc5cn(c6ccc(F)cc56)CCCCCCN(Cc5ccc(cc5)CCNC(=O)[C@]5(C)CCCN5C2=O)C(=O)CCC(=O)N[C@@H](C)C(=O)N[C@H](CNC(=O)CCOCCOCC[N+](C)(C)CCNC(=O)COCCOCCNC(=O)COCCOCCNC(=O)CC[C@H](NC(=O)CCCCCCCCCCCCCCC(=O)O)C(=O)O)C(=O)N[C@@H](Cc2cccc(c2)CNC(=O)CO4)C(=O)N3)cc1 [Example 4]	< 1260	–	–	< 6	3
COc1ccc(C[C@@H]2NC(=O)[C@H]([C@@H](C)O)NC(=O)[C@@H]3[C@@H]4CCN3C(=O)[C@@H]3Cc5cn(c6ccc(F)cc56)CCCCCCN(Cc5ccc(cc5)CCNC(=O)[C@]5(C)CCCN5C2=O)C(=O)CCC(=O)N[C@@H](C)C(=O)N[C@H](CNC(=O)COCCOCCNC(=O)COCCOCCNC(=O)CCCCC[N+](C)(C)CCNC(=O)CC[C@H](NC(=O)CCCCCCCCCCCCCCCCC(=O)O)C(=O)O)C(=O)N[C@@H](Cc2cccc(c2)CNC(=O)CO4)C(=O)N3)cc1 [compound 30]	< 1260	< 6	4	–	–
COc1ccc(C[C@@H]2NC(=O)[C@H]([C@@H](C)O)NC(=O)[C@@H]3[C@@H]4CCN3C(=O)[C@@H]3Cc5cn(c6ccc(F)cc56)CCCCCCN(Cc5ccc(cc5)CCNC(=O)[C@]5(C)CCCN5C2=O)C(=O)CCC(=O)N[C@@H](C)C(=O)N[C@H](CNC(=O)COCCOCCNC(=O)CCOCCOCC[N+](C)(C)CCNC(=O)COCCOCCNC(=O)COCCOCCNC(=O)CC[C@H](NC(=O)CCCCCCCCCCCCCCCCC(=O)O)C(=O)O)C(=O)N[C@@H](Cc2cccc(c2)CNC(=O)CO4)C(=O)N3)cc1 [compound 32]	< 1260	9	11	–	–
COc1ccc(C[C@@H]2NC(=O)[C@H]([C@@H](C)O)NC(=O)[C@@H]3[C@@H]4CCN3C(=O)[C@@H]3Cc5cn(c6ccc(F)cc56)CCCCCCN(Cc5ccc(cc5)CCNC(=O)[C@]5(C)CCCN5C2=O)C(=O)CCC(=O)N[C@@H](C)C(=O)N[C@H](CNC(=O)CC[C@H](NC(=O)CCCCC[N+](C)(C)CCNC(=O)COCCOCCNC(=O)COCCOCCNC(=O)CC[C@H](NC(=O)CCCCCCCCCCCCCCCCC(=O)O)C(=O)O)C(=O)O)C(=O)N[C@@H](Cc2cccc(c2)CNC(=O)CO4)C(=O)N3)cc1 [compound 33]	< 1260	14	16	–	–
COc1ccc(C[C@@H]2NC(=O)[C@H]([C@@H](C)O)NC(=O)[C@@H]3[C@@H]4CCN3C(=O)[C@@H]3Cc5cn(c6ccc(F)cc56)CCCCCCN(Cc5ccc(cc5)CCNC(=O)[C@]5(C)CCCN5C2=O)C(=O)CCC(=O)N[C@@H](C)C(=O)N[C@H](CNC(=O)COCCOCCNC(=O)COCCOCCNC(=O)CC[C@H](NC(=O)CC[C@H](NC(=O)CCOCCOCC[N+](C)(C)CCNC(=O)CCCCCCCCCCCCCCC(=O)O)C(=O)O)C(=O)O)C(=O)N[C@@H](Cc2cccc(c2)CNC(=O)CO4)C(=O)N3)cc1 [compound 37]	< 1260	< 6	6	–	–
COc1ccc(C[C@@H]2NC(=O)[C@H]([C@@H](C)O)NC(=O)C3C4CCN3C(=O)[C@@H]3Cc5cn(c6ccc(F)cc56)CCCCCCN(Cc5ccc(cc5)CCNC(=O)[C@]5(C)CCCN5C2=O)C(=O)CCC(=O)N[C@@H](C)C(=O)N[C@H](CNC(=O)CCOCCOCC[N+](C)(C)CCNC(=O)CCOCCOCC[N+](C)(C)CCNC(=O)COCCOCCNC(=O)COCCOCCNC(=O)CCCCCCCCCCCCCCC(=O)O)C(=O)N[C@@H](Cc2cccc(c2)CNC(=O)CO4)C(=O)N3)cc1 [compound 43]	< 1260	< 6	2	–	–
COc1ccc(C[C@@H]2NC(=O)[C@H]([C@@H](C)O)NC(=O)[C@@H]3[C@@H]4CCN3C(=O)[C@@H]3Cc5cn(c6ccc(F)cc56)CCCCCCN(Cc5ccc(cc5)CCNC(=O)[C@]5(C)CCCN5C2=O)C(=O)CCC(=O)N[C@@H](C)C(=O)N[C@H](CNC(=O)COCCOCC[N+](C)(C)CCOCCNC(=O)COCCOCCNC(=O)COCCOCCNC(=O)CC[C@H](NC(=O)CCCCCCCCCCCCCCC(=O)O)C(=O)O)C(=O)N[C@@H](Cc2cccc(c2)CNC(=O)CO4)C(=O)N3)cc1 [compound 45]	< 1260	< 6	2	–	–
COc1ccc(C[C@@H]2NC(=O)[C@H]([C@@H](C)O)NC(=O)[C@@H]3[C@@H]4CCN3C(=O)[C@@H]3Cc5cn(c6ccc(F)cc56)C/C=C/CCCN(Cc5ccc(cc5)CCNC(=O)[C@]5(C)CCCN5C2=O)C(=O)CCC(=O)N[C@@H](C)C(=O)N[C@H](CNC(=O)CCOCCOCC[N+](C)(C)CCNC(=O)COCCOCCNC(=O)COCCOCCNC(=O)CC[C@H](NC(=O)CCCCCCCCCCCCCCC(=O)O)C(=O)O)C(=O)N[C@@H](Cc2cccc(c2)CNC(=O)CO4)C(=O)N3)cc1 [compound 46]	< 1260	–	–	< 6	1
